We go through one compound from BindingDB's records for doi:10.1111/cbdd.12174 (Washington State University At Pullman, 2013).

A value given as a limit tells only on which side of the number the result lay.

For this experiment, the target named is T1, Glutamate carboxypeptidase 2 [44-750] (Homo sapiens, UniProt Q04609).
T1 construct: 44-750
Kind of experiment: IC50 Assay. Conditions: pH 7.4; 37 °C. Here is the method:
Inhibitors were made in TRIS buffer (50mM Tris pH 7.4 containing 1% Triton X-100). Working solutions of purified GCPII (50ug/mL) were diluted in TRIS buffer to provide from 15% to 20% conversion of substrate to product in the absence of inhibitor. The incubation mixture (final volume 250μL) contained either 25μL of an inhibitor solution or 25μL TRIS buffer to 175μ TRIS buffer in a test tube, followed by the addition of PABGgG (25μL, […]). The enzymatic reaction was initiated by the addition of 25μL of the GCPII working solution and allowed to proceed for 15min with constant shaking at 37°C. The reaction was quenched by the addition of 25μL methanolic TFA (2% trifluoroacetic acid by volume in methanol) followed by vortexing. The quenched mixture was immediately buffered by the addition of 25μL K2HPO4 (0.1M), vortexed, and centrifuged.

T1 sequence (Q04609 44-750): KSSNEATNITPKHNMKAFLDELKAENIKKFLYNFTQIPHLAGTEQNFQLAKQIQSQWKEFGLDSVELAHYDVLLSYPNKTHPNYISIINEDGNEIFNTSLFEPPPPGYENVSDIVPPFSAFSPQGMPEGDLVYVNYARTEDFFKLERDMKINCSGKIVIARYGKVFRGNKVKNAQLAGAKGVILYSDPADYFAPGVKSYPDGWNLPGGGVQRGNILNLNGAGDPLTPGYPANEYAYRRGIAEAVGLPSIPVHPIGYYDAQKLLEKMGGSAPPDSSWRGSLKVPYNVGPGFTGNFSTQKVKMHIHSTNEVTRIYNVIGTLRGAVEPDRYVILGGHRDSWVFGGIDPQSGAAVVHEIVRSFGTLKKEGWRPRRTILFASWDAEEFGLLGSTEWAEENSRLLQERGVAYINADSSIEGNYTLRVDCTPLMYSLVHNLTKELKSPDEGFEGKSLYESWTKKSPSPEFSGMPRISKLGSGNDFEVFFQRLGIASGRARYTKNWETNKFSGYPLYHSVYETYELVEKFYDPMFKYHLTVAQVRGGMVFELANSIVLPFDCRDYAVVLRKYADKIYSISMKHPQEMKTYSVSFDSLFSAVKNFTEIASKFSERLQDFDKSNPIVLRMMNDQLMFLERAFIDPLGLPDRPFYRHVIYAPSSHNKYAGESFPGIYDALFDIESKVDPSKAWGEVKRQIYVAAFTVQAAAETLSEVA

By IC50 is commonly meant the concentration that gives 50% inhibition. Read a low IC50 as greater potency in that assay. `O=C(O)CC[C@H](NS(=O)(=O)NC[C@H](NC(=O)c1ccccc1)C(=O)O)C(=O)O` [(S)-2-((N-((S)-2-benzamido-2-carboxyethyl)sulfamoyl)amino)pentanedioic acid (2b)] registered an IC50 of more than 100 µM.
